Key:
BxPC3 cells [1] = assay: BrdUrd incorporation cell proliferation assay; format: cell-based; conditions: Homo sapiens, BXPC-3; BxPC3, 50 µM, 24 h
Protocol: (§1) The effect of KCN1 on cell proliferation was determined using the BrdUrd incorporation assay (Oncogene, La Jolla, CA) according to the manufacturer’s instructions, [47]. In brief, cells were seeded in 96-well plates (8 × 10^3 to 1.2 × 10^4 cells per well) and incubated with various concentrations of KCN1 (0, 5, 12.5 and 50 µM) for 24 h. BrdUrd was added to the medium 10 h before termination of the experiment. The BrdUrd incorporated into cells was determined by anti-BrdUrd antibody, and absorbance was measured at dual wavelengths of 450/540 nm using an OPTImax microplate reader (Molecular Devices; Sunnyvale, CA).

HPAC cells [2] = assay: BrdUrd incorporation cell proliferation assay; format: cell-based; conditions: Homo sapiens, 24 h
Protocol: as §1

Mia Paca-2 cells [3] = assay: BrdUrd incorporation cell proliferation assay; format: cell-based; conditions: Homo sapiens; Mia Paca-2, 50 µM, 24 h
Protocol: as §1

Panc-1 cells [4] = assay: BrdUrd incorporation cell proliferation assay; format: cell-based; conditions: Homo sapiens; Panc-1, 50 µM, 24 h
Protocol: as §1

BxPC3 cells [5] = assay: Annexin V apoptosis assay; format: cell-based, human; conditions: BxPC3, 50 µM, 48 h
Protocol: (§2) Cells in early and late stages of apoptosis were detected using an Annexin V-FITC apoptosis detection kit from BioVision (Mountain View, CA), according the manufacturer’s protocol, [47]. In brief, 2–3×10^5 cells were exposed to various doses of the test compound KCN1 (0, 5, 12.5, 50 µM) and incubated for 48 h prior to analysis. The samples were analyzed using a Becton Dickinson FACSCalibur instrument (Ex = 488 nm; Em = 530 nm). Cells that were positive for Annexin V-FITC alone (early apoptosis) and Annexin V-FITC and PI (late apoptosis) were counted.

HPAC cells [6] = assay: Annexin V apoptosis assay; format: cell-based, human; conditions: 50 µM, 48 h, against untreated control
Protocol: as §2

Mia Paca-2 cells [7] = assay: Annexin V apoptosis assay; format: cell-based, human; conditions: Mia Paca-2, 50 µM, 48 h
Protocol: as §2

Panc-1 cells [8] = assay: Annexin V apoptosis assay; format: cell-based, human; conditions: Panc-1, 50 µM, 48 h
Protocol: as §2

[9] = test system: HPAC, Panc-1, Mia Paca-2 and BxPC3 pancreatic cancer cells; assay: Western blot of cell cycle-related proteins; format: cell-based, human; conditions: all four cell lines, 12 h and 24 h
Protocol: In the in vitro studies, cells were exposed to various concentrations of KCN1 for 12 or 24 h. For immunoblotting, cell lysates were fractionated with identical amounts of protein by SDS-PAGE and transferred to Bio-Rad trans-Blot nitrocellulose membranes (Bio-Rad Laboratories, Hercules, CA). The nitrocellulose membrane was then incubated in blocking buffer (Tris-buffered saline containing 0.1% Tween 20 and 5% non-fat milk) for 1 hr at room temperature. Then the membrane was incubated with the appropriate primary antibody overnight at 4°C or 2 h at room temperature with gentle shaking. The membrane was washed three times with rinsing buffer (Tris-buffered saline containing 0.1% Tween 20) for 15 min and then incubated with goat anti-mouse/rabbit IgG-horseradish peroxidase-conjugated antibody (Bio-Rad) for 1 h at room temperature. After repeating the washes in triplicate, the protein of interest was detected by enhanced chemilluminescence reagents from PerkinElmer LAS, Inc (Boston, MA).

COc1ccc(S(=O)(=O)N(Cc2ccc3c(c2)C=CC(C)(C)O3)c2ccccc2)cc1OC [KCN1, 3,4-dimethoxy-N-[(2,2-dimethyl-2H-chromen-6-yl)methyl]-N-phenylbenzenesulfonamide]
inhibition at 50 µM (BxPC3 cells [1]): ~88% | inhibition at 50 µM (HPAC cells [2]): ~80% | inhibition at 50 µM (Mia Paca-2 cells [3]): ~60% | inhibition at 50 µM (Panc-1 cells [4]): ~56% | apoptotic activity (BxPC3 cells [5]): no detectable apoptotic activity | apoptotic index (HPAC cells [6]): 1.4 fold | apoptotic activity (Mia Paca-2 cells [7]): no detectable apoptotic activity | apoptotic activity (Panc-1 cells [8]): no detectable apoptotic activity | expression of E2F1, Cdk2, Cdk4, Cdk6, Cdc25c, Cyclin D1 and Cyclin E [9]: decreased expression | expression of p21 and p27 [9]: increased the expression

— article PMC3441526, “KCN1, a Novel Synthetic Sulfonamide Anticancer Agent: In Vitro and In Vivo Anti-Pancreatic Cancer Activities and Preclinical Pharmacology” (PLoS ONE, 2012)
